Each molecule was assayed on rabbit brush border membrane vesicles (BBMV) (assay: inhibition of cholesterol uptake in rabbit brush border membrane vesicles (scavenger receptor-mediated uptake of radiolabelled cholesterol ester from donor particles)). Details: inhibition of uptake of radiolabelled cholesterol ester from loaded donor particles into the BBMV bilayer; test concentration not given.
Assay type: biochemical
Protocol: Chem. Int. Ed. 2004, 43, 4653-4656; Kvaerno, L. et. al. Org. Lett. 2005, 7, 1145-1148, van Bennekum, A. et. al. Biochemistry 2005, 44, 4517-4525).
The compounds of the invention (commercially obtained or prepared according to Wu, G. Z. et al., J. Org. Chem. 1999, 64, 3714-3718) together with the glucuronide (the metabolite of ezetimibe, prepared according to Vaccaro and Davis, Bioorg. Med. Chem. Lett. 1998, 8, 313-318) as appropriate reference compounds were evaluated by well-established methods to determine their inhibition of cholesterol uptake in rabbit brush border membrane vesicles (BBMV) (Table 1). Briefly, the scavenger receptor-mediated uptake of radiolabelled cholesterol ester from the loaded donor particles into the BBMV bilayer was measured in the presence of various compounds of the invention and appropriate reference compounds (Kvaerno, L. et al, Angew. Chem. Int. Ed. 2004, 43, 4653-4656; Kvaerno, L. et al, Org. Lett. 2005, 7, 1145-1148).
With `CCCNC(=O)c1ccc(N2C(=O)O[C@H](CO)[C@H]2c2ccc(O)cc2)cc1` [Compound 15, 4-((4R,5S)-5-(hydroxymethyl)-4-(4-hydroxyphenyl)-2-oxooxazolidin-3-yl)-N-propylbenzamide] the “CAI (%) Inhibition” value was 15 ± 4%. For `O=C1O[C@H](Cn2nncc2-c2ccccc2)[C@@H](c2ccc(O)cc2)N1c1ccc(F)cc1` [Compound 29, (4R, 5R)-3-(4-fluorophenyl)-4-(4-hydroxyphenyl)-5-((5-phenyl-1H-1,2,3-triazol-1-yl)methyl)oxazolidin-2-one], the “CAI (%) Inhibition” value was 15 ± 1%. In the case of `O=C1O[C@H](Cn2nncc2-c2ccc(F)cc2)[C@@H](c2ccc(O)cc2)N1c1ccc(F)cc1` [Compound 30, (4R,5R)-3-(4-fluorophenyl)-5-((5-(4-fluorophenyl)-1H-1,2,3-triazol-1-yl)methyl)-4-(4-hydroxyphenyl)oxazolidin-2-one], the “CAI (%) Inhibition” value was 16 ± 1%. For `CN(C)CCNC(=O)c1ccc(N2C(=O)O[C@H](CO)[C@H]2c2ccc(O)cc2)cc1` [Compound 33, N-(2-(dimethylamino)ethyl)-4-((4R,5S)-5-(hydroxymethyl)-4-(4-hydroxyphenyl)-2-oxooxazolidin-3-yl)-benzamide], the “CAI (%) Inhibition” value was 16 ± 2%. In the case of `C[N+](C)(C)CCNC(=O)c1ccc(N2C(=O)O[C@H](CO)[C@H]2c2ccc(OCc3ccccc3)cc2)cc1` [Compound 34, ((4R,5S)-4-(4-(benzyloxy)phenyl)-5-(hydroxy-methyl)-2-oxooxazolidin-3-yl)-N-(2-(trimethylamonium-iodide)ethyl)benzamide], the “CAI (%) Inhibition” value was 29 ± 3%. `C[N+](C)(C)CCNC(=O)c1ccc(N2C(=O)O[C@H](CO)[C@H]2c2ccc(O)cc2)cc1` [Compound 35, ((4R,5S)-4-(4-hydroxyphenyl)-5-(hydroxymethyl)-2-oxooxazolidin-3-yl)-N-(2-(trimethylamoniumbromide)ethyl)-benzamide] was tested, and the “CAI (%) Inhibition” value was 20 ± 1%. With `O=C(NCCN1CCOCC1)c1ccc(N2C(=O)O[C@H](CO)[C@H]2c2ccc(OCc3ccccc3)cc2)cc1` [Compound 36, 4-((4R,5S)-4-(4-(benzyloxy)phenyl)-5-(hydroxymethyl)-2-oxooxazolidin-3-yl)-N-(2-morpholinoethyl)-benzamide] the “CAI (%) Inhibition” value was 33 ± 2%. For `O=C(NCCN1CCOCC1)c1ccc(N2C(=O)O[C@H](CO)[C@H]2c2ccc(O)cc2)cc1` [Compound 37, 4-((4R,5S)-5-(hydroxymethyl)-4-(4-hydroxy-phenyl)-2-oxooxazolidin-3-yl)-N-(2-morpholinoethyl)-benzamide], the “CAI (%) Inhibition” value was 21 ± 3%. For `C[N+]1(CCNC(=O)c2ccc(N3C(=O)O[C@H](CO)[C@H]3c3ccc(OCc4ccccc4)cc3)cc2)CCOCC1.[I-]` [Compound 38, 4-(2-(4-((4R,5S)-4-(4-(benzyloxy)phenyl)-5-(hydroxymethyl)-2-oxooxazolidin-3-yl)benzamido)ethyl)-4-methylmorpholin-4-ium iodide], the “CAI (%) Inhibition” value was 24 ± 2%. With `O=C1[C@H](CC[C@H](O)c2ccc(F)cc2)[C@@H](c2ccc(O)cc2)N1c1ccc(F)cc1` [Ezetimibe, reference compound] the “CAI (%) Inhibition” value was 15 ± 4%.

Source: patent EP1958941A1, “Oxazolidinones and their use as hypocholesterolemic agents” (Lipideon Biotechnology AG, priority 2007, dated 2008)
